# “And” between values parts separate entries of the source, which are not always exact repeats. Equal entries are not always repeated. The source made the active and inactive calls.
# Experiments:
# [1] = Luminescence Cell-Based Dose Response HTS to Identify Inhibitors of 5'UTR Stem-Loop Driven Prion Protein mRNA Translation in H4 Neuroglioblastoma Cells. [Related pubchem assays: 1827 (Project Summary), 1813 (Primary HTS)]; format: functional
# [2] = inhibitors of SNCA 5'UTR-driven reporter translation, confirmation, H4 neuroglioma cells, luminescence (AID 1988); format: functional, cell-based
# [3] = target: DNA (cytosine-5)-methyltransferase 1 (Homo sapiens, UniProt P26358); assay: DNMT1 methyltransferase inhibitors, confirmation, biochemical, fluorescent molecular beacon (AID 602386); format: functional
# [4] = target: T1, DNA repair protein RAD52 homolog (Homo sapiens, UniProt P43351); format: functional, biochemical
# T1 sequence (P43351 whole entry): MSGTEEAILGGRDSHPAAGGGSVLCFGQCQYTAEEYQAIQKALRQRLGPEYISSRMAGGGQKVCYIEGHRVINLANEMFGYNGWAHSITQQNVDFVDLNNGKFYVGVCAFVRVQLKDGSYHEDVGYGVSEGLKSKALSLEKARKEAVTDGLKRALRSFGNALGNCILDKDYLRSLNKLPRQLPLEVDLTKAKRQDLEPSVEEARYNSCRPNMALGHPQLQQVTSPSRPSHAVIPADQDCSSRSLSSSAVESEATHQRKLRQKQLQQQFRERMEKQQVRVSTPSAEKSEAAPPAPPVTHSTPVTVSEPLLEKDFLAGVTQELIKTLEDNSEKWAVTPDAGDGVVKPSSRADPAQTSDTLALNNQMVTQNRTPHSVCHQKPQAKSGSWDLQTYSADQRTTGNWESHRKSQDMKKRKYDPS
# [5] = system: HEK293; assay: NOD1 signaling inhibitors, primary screen, cell-based, luminescence, uHTS (AID 1578); format: functional; conditions: Homo sapiens
# [6] = system: HEK293; assay: cells; format: functional, cell-based; conditions: Homo sapiens
# [7] = system: HEK293; assay: cells; format: functional, cell-based; conditions: Homo sapiens; remark: listed apart in the source
# [8] = target: Nucleotide-binding oligomerization domain-containing protein 2 (Homo sapiens, UniProt Q9HC29); assay: NOD2 signaling inhibitors, cell-based, luminescence, uHTS, HEK293 (AID 1566); format: functional
# [9] = system: HEK293; assay: NOD2 signaling inhibitors in MDP-stimulated cells, cell-based, uHTS, luminescence (AID 2001); format: functional; conditions: Homo sapiens
# [10] = system: HEK293; assay: cells; format: functional, cell-based; conditions: Homo sapiens; remark: listed apart in the source
# [11] = target: Beta-galactosidase (Escherichia coli, UniProt Q8VNN2); assay: beta-galactosidase enzyme inhibitors and activators, dose response, artefact control for CCR6 antagonist project, biochemical, E. coli enzyme, set 3 (AID 504712); format: functional
# [12] = Fluorescence-based cell-based high throughput dose response assay for inhibitors of the interaction of nucleotide-binding oligomerization domain containing 2 (NOD2) and the receptor-interacting serine-threonine kinase 2 (RIPK2).; format: functional; conditions: Homo sapiens
# [13] = target: Beta Lactamase (Pseudomonas aeruginosa, UniProt Q932Y6); assay: beta-lactamase reporter inhibitor potency, dose response, artefact control for NOD2-RIPK2 interaction inhibitor project, BLA reporter cells, FRET fluorescence (AID 651552); format: functional, cell-based
# [14] = target: Paired box protein Pax-8 (Homo sapiens, UniProt Q06710); assay: inhibitors of PAX8-driven TPO luciferase reporter, dose response, RMG-I cells, cherry-pick (AID 687027); format: functional, cell-based;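 further: luciferase reporter driven by Pax8 target thyroperoxidase promoter measured by SteadyGlo luminescence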
# [15] = cytotoxicity in COV362 ovarian cancer cells, dose response, cytotoxicity control for PAX8 inhibitor project, cell-based, plate reader, dry powder, SA12 (AID 743144); format: functional
# [16] = NIH:OVCAR-3 ovarian cancer cell cytotoxicity, dose response, PAX8 inhibitor project, plate reader, dry powder samples (AID 743044); format: functional, cell-based
# [17] = IGROV1 ovarian cancer cell cytotoxicity, dose response, PAX8 inhibitor project, plate reader, dry powder samples (AID 743043); format: functional, cell-based; conditions: IGROV-1
# [18] = cytotoxicity in OVCAR4 cells, dose response, cytotoxicity control for PAX8 inhibitor project, cell-based, plate reader, dry powder, SA11 (AID 743150); format: functional; conditions: OVCAR-4
# [19] = cytotoxicity in COV434 cells, dose response, cytotoxicity control for PAX8 inhibitor project, cell-based, plate reader, dry powder, SA7 (AID 743145); format: functional
# [20] = cytotoxicity in OV-90 ovarian cancer cells, dose response, PAX8 inhibitor project, cell-based, plate reader, dry powder, SA8 (AID 743149); format: functional
# [21] = cytotoxicity dependent on PAX8, dose response, cell-based, plate reader, dry powder (AID 743049); format: functional
# [22] = target: T2, Sentrin-specific protease 8 (Homo sapiens, UniProt Q96LD8); format: functional
# T2 sequence (Q96LD8 whole entry): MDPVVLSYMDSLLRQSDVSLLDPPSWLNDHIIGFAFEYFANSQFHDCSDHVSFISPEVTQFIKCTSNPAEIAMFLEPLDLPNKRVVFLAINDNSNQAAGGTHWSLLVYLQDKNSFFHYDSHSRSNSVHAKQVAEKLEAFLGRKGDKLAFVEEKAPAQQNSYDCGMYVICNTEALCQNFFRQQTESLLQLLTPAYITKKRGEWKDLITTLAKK
# [23] = target: T2, Sentrin-specific protease 8; format: functional; remark: listed apart in the source
# [24] = ARNT/TACC3 interaction disruptors, potency, confirmation, biochemical, AlphaScreen, cherry-picked samples (AID 651703); format: functional, Homo sapiens;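 further: His-tagged ARNT PAS-B domain paired with GST-TACC3 E629A dimer coactivator fragment; potency of inhibitors that break up the complex and lower AlphaScreen signal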
# [25] = target: Aryl hydrocarbon receptor (Homo sapiens, UniProt P35869); conditions: Potency;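 further: confirmatory quantitative high-throughput screen measuring activation of the AhR signaling pathway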
# [26] = Shn3 3'UTR reporter inhibitors, dose response, cell-based, Clone20 osteoblasts, firefly luciferase, cherry-picked (AID 624132); format: functional;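 further: firefly luciferase luminescence from reporter carrying the Shn3 3'UTR in osteoblasts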
# [27] = HepG2 cell cytotoxicity, dose response, cytotoxicity control for Shn3 inhibitor project, CellTiter-Glo, cherry-picked (AID 624134); format: functional, cell-based
# [28] = control 3'UTR Renilla luciferase suppression, dose response, counter-screen for Shn3 inhibitor project, cell-based, Clone20-Shn3RL, cherry-picked (AID 624133); format: functional
# [29] = target: Protein Wnt-3a (Mus musculus, UniProt P27467); assay: Wnt3a-driven reporter signaling inhibition, dose response, selectivity assay for Gli-SUFU antagonist project, Wnt-LIGHT cells, luminescence (AID 651570); format: functional; conditions: read-out: IC50_Mean;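 further: Wnt-LIGHT reporter cells stimulated with conditioned medium from Wnt3a-producing cells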
# [30] = target: Nonstructural protein 1 (Influenza A virus, UniProt Q194T2); format: functional, Influenza A virus (A/California/07/2009(H1N1))
# [31] = AlphaScreen signal interference compounds, dose response, artefact control for ARNT-TACC3 interaction inhibitor project, biochemical, luminescence, cherry-pick (AID 651705); format: functional;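 further: AlphaScreen bead proximity signal that flags compounds interfering with the detection technology; potency reflects signal decrease which marks the compound as an assay artifact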
# [32] = target: ATP-binding cassette sub-family B member 6 (Homo sapiens, UniProt Q9NP58); assay: ABCB6 transporter inhibitors, dose response, K562-ABCB6 cells, flow cytometry, cherry pick 1 (AID 623955); format: functional; conditions: read-out: EC50_MICROM
# [33] = NIH-3T3 fibroblast cytotoxicity, dose response, cytotoxicity control for antifungal single agent project, cell-based, Alamar Blue, dry powder (AID 602188); format: functional
# [34] = target: T3, CAAX prenyl protease 2 (Saccharomyces cerevisiae S288c, UniProt Q03530); format: biochemical
# T3 sequence (Q03530 whole entry): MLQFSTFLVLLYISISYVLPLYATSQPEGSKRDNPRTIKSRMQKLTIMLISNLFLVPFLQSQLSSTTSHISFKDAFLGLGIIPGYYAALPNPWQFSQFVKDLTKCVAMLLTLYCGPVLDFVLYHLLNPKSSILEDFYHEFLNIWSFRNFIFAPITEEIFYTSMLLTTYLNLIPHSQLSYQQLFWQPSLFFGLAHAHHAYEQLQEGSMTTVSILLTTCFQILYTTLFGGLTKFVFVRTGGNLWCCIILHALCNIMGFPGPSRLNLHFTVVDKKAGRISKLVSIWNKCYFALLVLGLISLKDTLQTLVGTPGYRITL
# [35] = target: CAAX prenyl protease 2 (Homo sapiens, UniProt Q9Y256); assay: human Rce1 protease inhibitors, dose response, biochemical, yeast membranes, quenched-peptide fluorescence, cherry-pick (AID 588849)
# [36] = target: ATP-dependent molecular chaperone HSP82 (Candida albicans (strain WO-1) (Yeast), UniProt C4YTQ8); assay: loss of DOC-induced GRE-beta-galactosidase reporter signal, dose response, Hsp90 inhibitor project, S. cerevisiae, luminescence (AID 2400); format: functional, cell-based;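 further: beta-galactosidase luminescence from glucocorticoid response element reporter as proxy for Hsp90 function; inhibitor potency where signal loss means Hsp90 inhibition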
# [37] = target: Melanocortin receptor 4 (Homo sapiens, UniProt P32245); assay: MC4R antagonist potency on cAMP, dose response, cell-based, TR-FRET, biased antagonists (AID 602298); format: functional;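 further: antagonist potency against agonist-stimulated cAMP production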
# [38] = target: Hepatocyte nuclear factor 4-alpha (Homo sapiens, UniProt P41235); format: functional, cell-based;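 further: biochemical luminescence-based dose-response counterscreen measuring inhibition of HNF4 dimerization, run alongside a screen for blockers of ABHD5–perilipin-5 interaction; split luciferase complementation of HNF4 fusion proteins in cell lysate measuring dimerization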
# [39] = target: T4, Rac GTPase-activating protein 1 (Homo sapiens, UniProt Q9H0H5); assay: MgcRacGAP GTPase-activating activity inhibitors, confirmation, biochemical, ADP Hunter fluorescence, primary and confirmatory (AID 624330); format: functional
# T4 sequence (Q9H0H5 whole entry): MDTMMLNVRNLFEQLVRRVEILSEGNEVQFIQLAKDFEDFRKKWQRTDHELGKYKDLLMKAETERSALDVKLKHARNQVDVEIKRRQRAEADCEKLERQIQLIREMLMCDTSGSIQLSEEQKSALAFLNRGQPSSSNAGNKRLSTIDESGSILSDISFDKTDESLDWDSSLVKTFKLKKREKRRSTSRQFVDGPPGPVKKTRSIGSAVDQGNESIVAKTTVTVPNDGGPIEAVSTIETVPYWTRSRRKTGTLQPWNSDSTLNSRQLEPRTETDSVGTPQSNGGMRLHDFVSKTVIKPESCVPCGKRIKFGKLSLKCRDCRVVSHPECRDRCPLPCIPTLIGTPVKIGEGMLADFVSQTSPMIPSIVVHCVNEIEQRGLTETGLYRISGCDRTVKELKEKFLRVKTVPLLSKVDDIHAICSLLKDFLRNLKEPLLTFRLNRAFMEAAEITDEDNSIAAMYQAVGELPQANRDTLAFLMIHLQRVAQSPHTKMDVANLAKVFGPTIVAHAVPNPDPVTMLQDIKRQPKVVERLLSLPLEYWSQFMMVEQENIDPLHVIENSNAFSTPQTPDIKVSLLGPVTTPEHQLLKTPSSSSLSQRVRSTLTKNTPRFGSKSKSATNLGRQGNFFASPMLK
# [40] = target: Interleukin-8 (Homo sapiens, UniProt P10145); assay: Dose Response confirmation of uHTS small molecule hits for cystic fibrosis induced NFkb Inhibitors in a PAF-induced IL8 counterscreen.; format: functional; conditions: read-out: IC50_Mean
# Sequence of Interleukin-8 (P10145 whole entry): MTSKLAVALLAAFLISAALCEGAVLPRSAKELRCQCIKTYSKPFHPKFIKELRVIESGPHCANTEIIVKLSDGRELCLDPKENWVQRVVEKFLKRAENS
# Sequence of ATP-dependent molecular chaperone HSP82 (C4YTQ8 whole entry): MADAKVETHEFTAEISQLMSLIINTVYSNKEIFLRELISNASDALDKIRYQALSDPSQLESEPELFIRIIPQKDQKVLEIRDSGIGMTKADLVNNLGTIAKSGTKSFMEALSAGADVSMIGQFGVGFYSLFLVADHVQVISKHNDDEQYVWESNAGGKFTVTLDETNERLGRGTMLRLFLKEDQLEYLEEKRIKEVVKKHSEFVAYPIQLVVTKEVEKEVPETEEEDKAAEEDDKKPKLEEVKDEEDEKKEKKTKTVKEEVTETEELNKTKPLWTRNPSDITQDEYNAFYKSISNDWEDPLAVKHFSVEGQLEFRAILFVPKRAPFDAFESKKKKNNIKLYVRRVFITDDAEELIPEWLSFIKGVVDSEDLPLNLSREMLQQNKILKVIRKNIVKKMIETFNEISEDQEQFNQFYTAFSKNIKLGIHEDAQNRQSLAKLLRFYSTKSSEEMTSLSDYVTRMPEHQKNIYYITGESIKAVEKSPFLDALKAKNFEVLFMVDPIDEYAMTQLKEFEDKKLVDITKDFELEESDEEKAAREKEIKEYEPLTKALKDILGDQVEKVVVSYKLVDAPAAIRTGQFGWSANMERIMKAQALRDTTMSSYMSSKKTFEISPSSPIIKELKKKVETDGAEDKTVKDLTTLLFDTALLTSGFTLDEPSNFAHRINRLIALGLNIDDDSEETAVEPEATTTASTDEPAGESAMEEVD
# Sequence of Melanocortin receptor 4 (P32245 whole entry, the tested form may be a part): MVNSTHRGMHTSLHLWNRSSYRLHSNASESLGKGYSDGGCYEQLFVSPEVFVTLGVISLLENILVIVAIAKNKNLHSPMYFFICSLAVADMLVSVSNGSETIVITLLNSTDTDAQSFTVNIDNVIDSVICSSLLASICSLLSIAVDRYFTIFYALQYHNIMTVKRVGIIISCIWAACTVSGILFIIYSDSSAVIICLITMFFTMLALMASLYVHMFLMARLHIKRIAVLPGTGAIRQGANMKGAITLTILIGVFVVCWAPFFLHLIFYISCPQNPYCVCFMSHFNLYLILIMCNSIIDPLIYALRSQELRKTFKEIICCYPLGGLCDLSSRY
# Sequence of Hepatocyte nuclear factor 4-alpha (P41235 whole entry, the tested form may be a part): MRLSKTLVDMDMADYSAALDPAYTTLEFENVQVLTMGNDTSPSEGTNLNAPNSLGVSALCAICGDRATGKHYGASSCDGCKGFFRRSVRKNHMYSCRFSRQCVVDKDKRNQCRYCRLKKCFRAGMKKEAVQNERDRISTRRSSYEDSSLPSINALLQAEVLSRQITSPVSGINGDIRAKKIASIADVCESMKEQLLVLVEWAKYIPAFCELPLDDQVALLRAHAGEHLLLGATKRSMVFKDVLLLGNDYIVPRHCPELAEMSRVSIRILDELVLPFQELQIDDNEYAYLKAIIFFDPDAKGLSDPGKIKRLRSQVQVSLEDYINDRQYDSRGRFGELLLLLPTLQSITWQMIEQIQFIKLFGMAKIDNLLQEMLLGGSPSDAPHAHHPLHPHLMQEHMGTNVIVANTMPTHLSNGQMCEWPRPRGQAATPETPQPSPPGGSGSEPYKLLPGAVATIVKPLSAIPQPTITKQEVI
# Sequence of Protein Wnt-3a (P27467 whole entry): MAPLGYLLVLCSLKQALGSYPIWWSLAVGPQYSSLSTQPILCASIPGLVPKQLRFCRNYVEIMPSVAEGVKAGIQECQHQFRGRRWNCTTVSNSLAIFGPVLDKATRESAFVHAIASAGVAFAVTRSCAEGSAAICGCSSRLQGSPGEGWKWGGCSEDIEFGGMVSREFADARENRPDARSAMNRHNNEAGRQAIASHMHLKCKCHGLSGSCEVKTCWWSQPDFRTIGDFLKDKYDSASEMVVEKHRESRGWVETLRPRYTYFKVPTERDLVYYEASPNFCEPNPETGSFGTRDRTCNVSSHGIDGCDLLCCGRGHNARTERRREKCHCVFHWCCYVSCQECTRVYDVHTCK
# Sequence of Beta-galactosidase (Q8VNN2 whole entry, the tested form may be a part): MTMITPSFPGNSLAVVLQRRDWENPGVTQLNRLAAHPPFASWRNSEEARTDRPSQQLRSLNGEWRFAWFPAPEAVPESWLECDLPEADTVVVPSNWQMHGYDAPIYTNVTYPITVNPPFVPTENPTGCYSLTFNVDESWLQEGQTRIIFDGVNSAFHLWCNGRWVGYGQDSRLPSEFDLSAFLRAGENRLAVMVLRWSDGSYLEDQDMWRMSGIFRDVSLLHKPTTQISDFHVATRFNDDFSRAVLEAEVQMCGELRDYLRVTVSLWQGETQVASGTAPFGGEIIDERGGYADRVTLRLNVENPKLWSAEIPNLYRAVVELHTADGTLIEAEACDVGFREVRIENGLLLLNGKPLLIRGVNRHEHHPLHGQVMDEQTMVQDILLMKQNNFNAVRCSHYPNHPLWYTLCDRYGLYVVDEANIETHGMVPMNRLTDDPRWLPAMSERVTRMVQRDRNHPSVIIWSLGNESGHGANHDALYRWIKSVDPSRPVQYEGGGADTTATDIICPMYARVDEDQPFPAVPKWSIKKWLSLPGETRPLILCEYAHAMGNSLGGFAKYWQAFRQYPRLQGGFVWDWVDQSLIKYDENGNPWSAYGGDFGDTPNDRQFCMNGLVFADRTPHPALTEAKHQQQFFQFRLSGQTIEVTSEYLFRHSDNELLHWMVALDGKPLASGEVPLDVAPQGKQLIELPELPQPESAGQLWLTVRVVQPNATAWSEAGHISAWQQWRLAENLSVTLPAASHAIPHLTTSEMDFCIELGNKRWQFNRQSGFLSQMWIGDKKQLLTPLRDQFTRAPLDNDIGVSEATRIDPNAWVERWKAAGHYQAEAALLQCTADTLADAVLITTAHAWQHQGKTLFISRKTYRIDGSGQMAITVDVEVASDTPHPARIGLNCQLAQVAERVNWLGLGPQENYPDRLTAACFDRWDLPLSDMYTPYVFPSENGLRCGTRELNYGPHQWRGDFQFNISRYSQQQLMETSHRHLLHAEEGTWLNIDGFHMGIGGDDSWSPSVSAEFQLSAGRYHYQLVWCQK
# Sequence of Aryl hydrocarbon receptor (P35869 whole entry): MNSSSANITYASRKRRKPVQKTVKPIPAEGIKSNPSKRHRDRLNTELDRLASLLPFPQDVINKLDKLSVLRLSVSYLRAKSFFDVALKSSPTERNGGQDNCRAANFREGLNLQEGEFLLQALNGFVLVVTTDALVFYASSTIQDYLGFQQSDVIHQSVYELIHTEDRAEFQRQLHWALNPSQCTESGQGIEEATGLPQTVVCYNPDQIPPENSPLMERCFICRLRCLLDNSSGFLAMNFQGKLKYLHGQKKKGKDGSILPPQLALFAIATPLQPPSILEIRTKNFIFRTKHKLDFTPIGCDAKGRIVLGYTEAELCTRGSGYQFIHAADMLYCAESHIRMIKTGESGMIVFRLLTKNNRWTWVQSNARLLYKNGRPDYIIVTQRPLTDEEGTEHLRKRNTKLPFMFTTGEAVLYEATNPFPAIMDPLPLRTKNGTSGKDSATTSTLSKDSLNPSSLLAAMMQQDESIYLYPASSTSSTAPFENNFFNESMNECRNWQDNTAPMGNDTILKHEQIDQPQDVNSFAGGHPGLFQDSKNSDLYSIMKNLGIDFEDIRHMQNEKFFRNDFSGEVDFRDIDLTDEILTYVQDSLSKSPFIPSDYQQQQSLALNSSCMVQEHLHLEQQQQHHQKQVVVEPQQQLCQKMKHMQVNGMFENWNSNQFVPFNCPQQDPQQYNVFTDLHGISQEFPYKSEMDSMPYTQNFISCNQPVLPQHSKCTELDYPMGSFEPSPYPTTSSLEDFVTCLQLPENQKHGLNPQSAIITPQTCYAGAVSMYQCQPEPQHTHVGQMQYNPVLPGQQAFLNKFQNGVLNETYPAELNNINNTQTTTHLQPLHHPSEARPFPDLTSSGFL
# Sequence of Nucleotide-binding oligomerization domain-containing protein 2 (Q9HC29 whole entry, the tested form may be a part): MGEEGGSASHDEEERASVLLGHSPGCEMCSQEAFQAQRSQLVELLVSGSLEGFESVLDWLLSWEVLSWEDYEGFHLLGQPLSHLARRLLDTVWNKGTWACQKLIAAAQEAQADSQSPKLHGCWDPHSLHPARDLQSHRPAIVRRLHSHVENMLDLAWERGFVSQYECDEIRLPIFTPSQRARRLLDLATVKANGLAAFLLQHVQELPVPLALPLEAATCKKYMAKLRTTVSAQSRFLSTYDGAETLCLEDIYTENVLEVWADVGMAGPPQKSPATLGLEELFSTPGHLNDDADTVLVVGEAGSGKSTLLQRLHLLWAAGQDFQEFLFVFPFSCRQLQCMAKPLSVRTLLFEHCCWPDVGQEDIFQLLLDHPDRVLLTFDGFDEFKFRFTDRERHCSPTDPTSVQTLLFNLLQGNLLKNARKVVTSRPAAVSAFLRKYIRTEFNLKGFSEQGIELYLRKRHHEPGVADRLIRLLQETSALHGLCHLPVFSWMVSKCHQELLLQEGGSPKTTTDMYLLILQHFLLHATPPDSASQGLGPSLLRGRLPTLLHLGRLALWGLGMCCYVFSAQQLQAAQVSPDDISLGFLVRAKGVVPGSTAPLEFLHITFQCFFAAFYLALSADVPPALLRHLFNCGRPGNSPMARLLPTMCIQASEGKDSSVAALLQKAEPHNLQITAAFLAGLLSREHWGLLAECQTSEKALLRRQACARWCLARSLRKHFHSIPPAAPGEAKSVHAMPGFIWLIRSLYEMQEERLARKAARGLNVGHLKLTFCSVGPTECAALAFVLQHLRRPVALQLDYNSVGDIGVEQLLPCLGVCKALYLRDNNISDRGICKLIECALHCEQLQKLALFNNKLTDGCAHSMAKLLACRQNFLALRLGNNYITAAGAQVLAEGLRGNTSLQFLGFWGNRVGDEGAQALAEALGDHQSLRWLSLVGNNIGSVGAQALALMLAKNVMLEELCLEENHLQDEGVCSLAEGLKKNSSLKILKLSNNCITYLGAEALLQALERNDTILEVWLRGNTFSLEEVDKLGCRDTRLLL
structure (smiles),measurement,setting,value
CC1(C)CC(N=c2cc(-c3ccccc3)oc3ccc(Cl)cc23)CC(C)(C)N1,EC50,[1],> 120 µM (not active)
same,EC50,[2],> 60 µM (not active)
same,IC50,[3],> 99 µM (inactive)
same,AC50,[4],0.689 µM (active)
COc1cccc2sc(N(CCCN(C)C)C(=O)CCS(=O)(=O)c3ccccc3)nc12,EC50,[5],8.24 µM (active)
same,IC50,[6],5.96 µM (active)
same,IC50,[7],> 20 µM (inactive)
same,EC50,[8],> 20 µM (inactive)
same,IC50,[9],6.06 µM (active)
same,IC50,[10],> 20 µM (inactive)
same,IC50,[11],> 66.6 µM (inactive)
same,IC50,[12],4.68 µM (active)
same,IC50,[13],17.2 µM (inactive)
same,AC50,[14],7.04 µM (active)
same,AC50,[15],13.9 µM (active)
same,AC50,[16],10 µM (active)
same,AC50,[17],28.7 µM (active)
same,AC50,[18],22.1 µM (active)
same,AC50,[19],12.9 µM (active)
same,AC50,[20],43.1 µM (active)
same,AC50,[21],8.54 µM (active)
Cc1ccoc1C(=O)NCCCNC(=O)c1occc1C,IC50,[22],8.27 µM (active)
same,IC50,[23],12.7 µM (active)
same,AC50,[24],84.7 µM (active)
Nc1ccc(N)c(Cl)c1,AC50,[25],31.6 µM (inconclusive)
COCCOc1nc2c(c(=O)n(C)c(=O)n2C)n1Cc1cccc(OC)c1,AC50,[26],2.23 µM (active)
same,AC50,[27],59.9 µM (active)
same,AC50,[28],4.09 µM (active)
same,IC50,[29],6.29 µM (active)
COc1cc([N+](=O)[O-])cc(/C=N/NC(=O)Cn2cncn2)c1O,IC50,[30],10.1 µM (active)
same,AC50,[31],85 µM (active)
C[N+](C)(C)CC1CCCC(C[N+](C)(C)C)C1=O (stereo unspecified),EC50,[32],4.14 µM (active)
O=C(Nc1nc(-c2ccccn2)cs1)c1ccccc1,AC50,[33],7.19 µM (active)
[H]/N=C(\N/C(=N/[H])NCCCCCCNC(=N)NC(=N)Nc1ccc(Cl)cc1)Nc1ccc(Cl)cc1,AC50,[34],23.1 µM (active)
same,AC50,[35],12.9 µM (active)
same,EC50,[36],19.8 µM (active) and > 160 µM (inactive)
same,IC50,[37],1.55 µM (active)
same,IC50,[38],21.4 µM (inactive)
same,IC50,[39],42.3 µM (active)
same,AC50,[4],17.4 µM (active)
Cc1ccc2occ(/C=N/NC(=O)c3ccccc3Br)c(=O)c2c1,IC50,[40],3.77 µM (active)
